Source: US20080200405A1, “Drug Resistance Reversal In Neoplastic Disease” (priority 2007, published 2008)
Read-outs that look alike come from different tables or passages of the source.

What was measured:
Lipid peroxidation = Lipid peroxidation inhibition (method of Ohkawa); type: biochemical; conditions: for Lipid Peroxidation Inhibition, % Inhibition: 10 uM
[1] = test system: Doxorubicin resistant SaOS2 cells; experiment: Cancer cell viability (MTT) in the presence or absence of doxorubicin; type: cell-based, human; conditions: compound 50 ug/mL, 3 days
TNFα = experiment: Measurement of LPS Induced-TNFα in THP-1 Cells; type: cell-based, human
Experimental: The lipid peroxidation assay method of Ohkawa, H.; Ohishi, N.; Yaki, K. Anal. Biochem. 1979, 95, 351 was used to evaluate […]. […] […] Cells were collected and spun at 1500 g for 10 minutes. Supernatant was collected and analyzed for TNFα.
Mean Percent Inhibition of TNF-alpha by compounds of the present invention is set forth in Table B. TNF-alpha inhibition data is set forth in Table B-1. OT-551 was used in both native form and in the form of nanoparticles. […] Other nitrogenous heterocyclic species of the invention are expected to show similar improvement in efficacy when disposed in nanoparticulate form.

[2] = test system: bFGF-induced angiogenesis in the CAM model; experiment: bFGF (FGF2)-stimulated CAM model; type: in vivo, chicken; conditions: bFGF/FGF2 1 ug, 30 ug injected; for inhibition in vivo at 0.03 mg: Gallus gallus, read-out: % Inhibition ± SEM
Experimental: In vivo neovascularization was examined by the method previously described by Auerbach et al. (J. Dev. Biol. 41:391-394 (1974)). Ten-day old chicken embryos were purchased from Spafas, Inc. (Preston, Conn.) and were incubated at 37° C. with 55% relative humidity. In the dark, with the aid of a candling lamp, a small hole was punctured in the shell concealing the air sac with a hypodermic needle. A second hole was punctured in the shell on the broadside of the egg directly over an […] portion of the embryonic membrane, as observed during candling. An artificial air sac was created beneath the second hole by applying gentle vacuum to the first hole using a small rubber squeeze bulb. The vacuum caused the chorioallantoic membrane (CAM) to separate from the shell.
For inducing angiogenesis, sterile filter disks were saturated with bFGF (1 μg/ml) (Life Technologies, Gaithersburg, Md.) or other pro-angiogenesis factors and control disks were saturated with PBS without Calcium and Magnesium. Control disks were saturated with PBS without Calcium and Magnesium.
After 24-48 hr, 10-25 ul of test agent was injected intravenously or added topically into the CAM membrane. Eight-Ten eggs/treatment group were used.
The number of vessel branch points contained in a circular region equal to the area of a filter disk was counted for each section. Percent inhibition data are expressed as the quotient of the experimental value minus the negative control value divided by the difference between the positive control value and the negative control value. One image was counted in each CAM preparation, and findings from eight CAM preparations were analyzed for each treatment condition. In addition, each experiment was performed three times. The resulting angiogenesis index is the mean ±SEM (Standard Error of Measurement) of new branch points in each set of treatment. Statistical analysis of blood vessel branching patterns are performed by 1-way analysis of variance (ANOVA) comparing experimental with corresponding control groups. Statistical significance differences are assessed at P value of <0.05.
The CAM model protocol was modified to include stimulus with bFGF. The effect of injected OT 551 was assayed.
TP-H was applied to the CAM model study to determine its respective anti-angiogenesis effects according to the materials and methods provided in Example 1. Basic Fibroblast Growth Factor (bFGF) was used to induce angiogenesis in the CAM model.
Compounds were introduced via injection to the CAM model study to determine its respective anti-angiogenesis effects according to the materials and methods provided in Example 1. bFGF was used to induce angiogenesis in the CAM model.

Angiogenesis in CAM = experiment: Neovascularization on the CAM (Inhibition of Angiogenesis in CAM); type: in vivo, chicken; conditions: for inhibition in vivo at 0.03 mg: Gallus gallus; for inhibition in vivo at 0.03 mg / % inhibition of angiogenesis in CAM at 30 ug: 30 ug; for Inhibition of Angiogenesis in CAM, % Inhibition: 300 ug
Experimental: In vivo neovascularization was examined by the method previously described by Auerbach et al. (J. Dev. Biol. 41:391-394 (1974)). Ten-day old chicken embryos were purchased from Spafas, Inc. (Preston, Conn.) and were incubated at 37° C. with 55% relative humidity. In the dark, with the aid of a candling lamp, a small hole was punctured in the shell concealing the air sac with a hypodermic needle. A second hole was punctured in the shell on the broadside of the egg directly over an […] portion of the embryonic membrane, as observed during candling. An artificial air sac was created beneath the second hole by applying gentle vacuum to the first hole using a small rubber squeeze bulb. The vacuum caused the chorioallantoic membrane (CAM) to separate from the shell. A window, approximately 1.0 cm^2, was cut in the shell over the dropped CAM with the use of a small crafts grinding wheel (Dremel, Division of Emerson Electric Company Racine, Wis.). The window allowed direct access to the underlying CAM. A pro-angiogenic agent was added to induce new blood vessel branches on the CAM of 10-day old embryos. […] Louis, Mo.) in a solution (95% ethanol and water). The disks were subsequently air dried under sterile conditions. The disks were then suspended in PBS (Phosphate Buffered Saline) and placed on growing CAMs. […] For inducing angiogenesis, sterile filter disks were saturated with bFGF (1 μg/ml) (Life Technologies, Gaithersburg, Md.) or other pro-angiogenesis factors and control disks were saturated with PBS without Calcium and Magnesium. Control disks were saturated with PBS without Calcium and Magnesium. Using sterile forceps one filter/CAM was placed from the window. The window was sealed with Highland brand transparent tape. After 24-48 hr, 10-25 ul of test agent was injected intravenously or added topically into the CAM membrane. Eight-Ten eggs/treatment group were used. CAM tissue directly beneath filter disk was harvested from embryos treated 48 hours prior with compound or control. Tissues were washed three times with PBS. Sections were placed in a 35-mm petri dish (Nalge Nunc, Rochester, N.Y.) and examined under a SV6 stereomicroscope (Karl Zeiss, Thornwood, N.Y.) at 50× magnification. […] Digital images of CAM sections from Petri dish were collected using a 3-CCD color video camera system (Toshiba America, New York, N.Y.). These images were analyzed using Image-Pro Plus software (Media Cybernetics, Silver Spring, Md.). The number of branch points in blood vessels within the circular region superimposed to the area of a filter disk was counted for each section. […] Tissues were washed three times with PBS. Sections were placed in a 35-mm Petri dish (Nalge Nunc; Rochester, N.Y.) and were examined under a SV6 stereomicroscope (Karl Zeiss; Thornwood, N.Y.) at 50× magnification. Digital images of CAM sections adjacent to filters were collected using a 3-CCD color video camera system (Toshiba America; New York, N.Y.) and analyzed with the Image-Pro Plus software (Media Cybernetics; Silver Spring, Md.). The number of vessel branch points contained in a circular region equal to the area of a filter disk was counted for each section. Percent inhibition data are expressed as the quotient of the experimental value minus the negative control value divided by the difference between the positive control value and the negative control value. One image was counted in each CAM preparation, and findings from eight CAM preparations were analyzed for each treatment condition. In addition, each experiment was performed three times. The resulting angiogenesis index is the mean ±SEM (Standard Error of Measurement) of new branch points in each set of treatment. Statistical analysis of blood vessel branching patterns are performed by 1-way analysis of variance (ANOVA) comparing experimental with corresponding control groups.

[3] = test system: Human whole blood clot formation
Experimental: TEG: Human whole blood (±drugs) was added to the cylindrical cuvette (“cup”). […] The cup oscillates 4°45′ ( 1/12 radian) in either direction every 4.5 seconds, with a 1-second mid-cycle stationary period, resulting in a frequency of 0.1 Hz and a maximal shear rate of 0.1 per second. The pin was suspended by a torsion wire that acts as a torque transducer. […] The torque experienced by the pin (relative to the oscillation of the cup) was plotted as a function of time (Forsythe, S. A. M. S. K. M. S. (2000): “Comparative In Vitro Efficacy of Different Platelet Glycoprotein IIb/IIIa Antagonists on Platelet-Mediated Clot Strength Induced by Tissue Factor With Use of Thromboelastography.” Arteriosclerosis, Thrombosis, and Vascular Biology 20: 1162).
(Data represent mean ±SD, n=6 (blood form normal healthy volunteers), *P<0.01 as compared to control)

[4] = Homo sapiens, THP-1, compound 10 uM, 5 ng/mL LPS, read-out: Mean Percent Inhibition of TNF-alpha using 5 ng/mL LPS
[5] = Homo sapiens, THP-1, read-out: TNFalpha IC50
[6] = TEG, human whole blood, Bevacizumab 1 ng/cup, Comp. 4 0 uM, *P<0.01 vs control

Row | Molecule | IC50 (TNFα; [5]) [µM] | melting point | Mean OD (×10^−3), MTT viability ([1]; Dox. 10^−6 M (+)) | Mean OD (×10^−3), MTT viability ([1]; absence of Dox. (−)) | inhibition at 10 µM (TNFα; [4]) [%] | inhibition in vivo at 0.03 mg (Angiogenesis in CAM) [%] | other results
1 | CC1(C)CC(Oc2nsnc2OC2CC(C)(C)N(O)C(C)(C)C2)CC(C)(C)N1O [Compound 14, 1-hydroxyl-4-(4-(2,2,6,6-tetramethylpiperidin-1-hydroxyl-4-yloxy)-1,2,5-thiadiazol-3-yloxy)-2,2,6,6-tetramethylpiperidine bis-hydrogen chloride] | – | – | – | – | – | 95.2 | inhibition at 10 µM (TNFα; Homo sapiens, THP-1, read-out: Mean Percent Inhibition of TNF-alpha using 5 ng/mL LPS): 63 ± 1%; IC50 (TNFα; Homo sapiens, THP-1, read-out: TNFalpha IC50 (uM)): 11.4 µM
2 | CC1(C)C=C(C(N)=O)C(C)(C)N1O [Compound 23, 2,5-dihydro-2,2,5,5-tetramethyl-1H-pyrrole-3-carboxamide-1-hydroxy] | – | – | 416.25 ×10^−3 | 1432.50 ×10^−3 | – | – | % inhibition of angiogenesis in CAM at 30 ug (Angiogenesis in CAM): 48.8; IC50 (TNFα; read-out: TNFalpha IC50): 87.4 µM
3 | O=C1O[C@H]([C@@H](O)CO)C(O)=C1O [Vitamin C, reference compound] | – | – | – | – | – | – | Inhibition of Angiogenesis in CAM, % Inhibition (Angiogenesis in CAM): 15 ± 7%
4 | Bevacizumab: a monoclonal antibody against vascular endothelial growth factor used to treat cancer by inhibiting angiogenesis [reference compound] | – | – | – | – | – | – | MA in comparison to native blood [3]: approximately six times larger MA; initiation of clot formation in comparison to native blood [3]: approximately two to three fold faster; Clot Strength - MA [3, 6]: 33.8 ± 5.6* mm; Time to Clot Initiation R [3, 6]: 7.8 ± 1.1* min
5 | Vitamin E [reference compound] | – | – | – | – | – | – | Inhibition of Angiogenesis in CAM, % Inhibition (Angiogenesis in CAM): 22 ± 6%

Second part, led by results:

Row | IC50 (TNFα; [5]) [µM] | melting point | Molecule | Mean OD (×10^−3), MTT viability ([1]; Dox. 10^−6 M (+)) | Mean OD (×10^−3), MTT viability ([1]; absence of Dox. (−)) | inhibition at 10 µM (TNFα; [4]) [%] | inhibition in vivo at 0.03 mg (Angiogenesis in CAM) [%] | other results
6 | 17 | 180.5 °C (dec.) | CC(=O)NC1CC(C)(C)N(O)C(C)(C)C1.Cl [Compound 2, 1-hydroxy-4-acetamido-2,2,6,6-tetramethylpiperidine] | 249.25 ×10^−3 | 496.33 ×10^−3 | 64 ± 5 | – | Lipid Peroxidation Inhibition, % Inhibition (Lipid peroxidation): 81.0%; inhibition in vivo at 0.03 mg [2]: 76.4 ± 9.9%; Branch pts ± SEM [2]: 84.7 ± 11.1
7 | 29.4 | 191.5 °C (dec.) | CC1C(O)C(C)C(C)(C)N(O)C1(C)C.Cl (centres unmarked) [Compound 6, 2,2,3,5,6,6-Hexamethyl-piperidine-1,4-diol hydrogen chloride salt] | 185.25 ×10^−3 | 367.00 ×10^−3 | 54 ± 6 | – | % Lipid Peroxidation inhibition (at 1 uM) (Lipid peroxidation; 1 uM): 70.5%; Lipid Peroxidation Inhibition, % Inhibition (Lipid peroxidation): 89.0%; inhibition in vivo at 0.03 mg [2]: 40.4 ± 9.3%; Branch pts ± SEM [2]: 78.6 ± 7.3
8 | 20.7 | 158.1 °C (dec.) | CC1(C)CC(NC(=O)N2CCOCC2)CC(C)(C)N1O.Cl [Compound 11, N-(2,2,6,6-tetramethylpiperidin-1-hydroxyl-4-yl)morpholine-4-carboxamide hydrogen chloride] | 267.25 ×10^−3 | 470.25 ×10^−3 | 24 ± 5 | – | Lipid Peroxidation Inhibition, % Inhibition (Lipid peroxidation): 82.7%; inhibition in vivo at 0.03 mg [2]: 71 ± 8.8%; Branch pts ± SEM [2]: 64.0 ± 5.1
9 | 21.5 | 186 °C (dec.) | CC1(C)CC(C#N)CC(C)(C)N1O.Cl [Compound 12, 4-cyano-1-hydroxyl-2,2,6,6-tetramethylpiperidine hydrogen chloride] | 287.25 ×10^−3 | 539.25 ×10^−3 | 35 | 92.1 | –
10 | 16.4 | – | CC1(C)CC(Oc2nsnc2Cl)CC(C)(C)N1O [Compound 13, 4-(4-chloro-1,2,5-thiadiazol-3-yloxyl)-1-hydroxyl-2,2,6,6-tetramethylpiperidine hydrogen chloride] | – | – | 36 | 93.4 | –
11 | 21.7 | 201.8 °C (dec.) | CC1(C)CC(Cl)CC(C)(C)N1O.Cl [Compound 21, 4-chloro-1-hydroxy-2,2,6,6-tetramethylpiperidine hydrogen chloride] | 99.25 ×10^−3 | 492.75 ×10^−3 | – | 94.1 | –
12 | ≥ 100 | – | CC1(C)CC(NC(=O)C2CC2)C(C)(C)N1O.Cl (centres unmarked) [Compound 38, N-(1-hydroxy-2,2,5,5-tetramethylpyrrolidin-3-yl)cyclopropanecarboxamide hydrogen chloride] | 378.50 ×10^−3 | 1202.75 ×10^−3 | – | – | % inhibition of angiogenesis in CAM at 30 ug (Angiogenesis in CAM): 62.8
